SMILES strings stand for the structures. Active and inactive are the calls of the source.

Series [1] concerns the target 5-hydroxytryptamine receptor 4 (Rattus norvegicus) (UniProt Q62758). Nature of the series: Antagonist activity against 5-HT4 receptor mediated relaxation of rat carbachol contracted esophageal muscularis mucosae. Format: functional.
The test system of series [2] is Sus scrofa. Nature of the series: Antagonism of 5-HT-induced tachycardia in anesthetized, vagotomized Yucatan micropigs at 0.1-300 ug/kg dose administered intravenously. Conditions: iv, read-out: ID50 (the source's name). Format: functional.
Series [3] is described as follows: Compound was tested for its half-life period at an intravenous dose of 30 ug/kg. The following applies: pig, in vivo, 0.03 mg/kg. The class given is ADME, organism-based, Sus scrofa.
The test system of series [4] is Sus scrofa. Nature of the series: Antagonism of 5-HT-induced tachycardia in anesthetized, vagotomized Yucatan micropigs at 3-3000 ug/kg dose administered intraduodenally; no effect. The class given is functional, organism-based.
The subject of series [5] is Sus scrofa. Put plainly: Antagonism of 5-HT-induced tachycardia in anesthetized, vagotomized Yucatan micropigs at 30-3000 ug/kg dose administered intraduodenally. Format: functional. The following applies: intraduodenal, read-out: ID50 (the source's name).
Series [6] deals with Sus scrofa. Nature of the series: Antagonism of 5-HT-induced tachycardia in anesthetized, vagotomized Yucatan micropigs at 1-300 ug/kg dose administered intravenously. The following applies: iv, read-out: ID50 (the source's name). The class given is functional.

5-hydroxytryptamine receptor 4 (Rattus norvegicus), sequence (Q62758 whole entry): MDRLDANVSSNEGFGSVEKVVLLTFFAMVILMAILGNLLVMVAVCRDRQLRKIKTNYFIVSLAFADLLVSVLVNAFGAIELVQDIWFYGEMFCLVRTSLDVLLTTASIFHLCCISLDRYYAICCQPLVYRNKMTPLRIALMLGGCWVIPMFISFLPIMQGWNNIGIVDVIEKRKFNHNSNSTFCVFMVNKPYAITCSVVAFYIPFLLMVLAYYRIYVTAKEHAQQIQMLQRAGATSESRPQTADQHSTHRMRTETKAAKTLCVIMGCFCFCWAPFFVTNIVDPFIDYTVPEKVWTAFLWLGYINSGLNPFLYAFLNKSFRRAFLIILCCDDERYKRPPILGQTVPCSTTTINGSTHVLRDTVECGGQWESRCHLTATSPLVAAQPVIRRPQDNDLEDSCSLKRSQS

One may read the pKb as the Kb on a negative log10 scale, so that one unit is a factor of ten. On to `COc1ccc(CCCN2CCC(CCC(=O)c3cc(Cl)c(N)c4c3OCCO4)CC2)cc1`, for which the pKb in series [1] is 10.6. Same read-out and setting: under `Nc1c(Cl)cc(C(=O)CCC2CCN(CCCc3ccccc3)CC2)c2c1OCCO2` stands 9.6; under `CS(=O)(=O)NCCN1CCC(CCC(=O)c2cc(Cl)c(N)c3c2OCCO3)CC1`, 9.9. Still for that read-out and setting: under `Cn1cc(C(=O)OCC2CCN(CCNS(C)(=O)=O)CC2)c2ccccc21` stands 9; under `CCCCN1CCC(CCC(=O)c2cc(Cl)c(N)c3c2OCCO3)CC1`, 9.9.

The term half-life denotes the time needed for the level to fall by half in the phase considered. `CCCCN1CCC(COC(=O)c2cc(Cl)c(N)c3c2OCCO3)CC1` had a negative logarithm of the Kb (pKb) in series [1] of 10.3. In series [2], the ED50 worked out at 8 µg/kg. For the same compound, in series [3], the half-life is below 2.5 h. For the same compound, the ID50 entry in series [4] was “inactive”. `COc1cc(COc2cc(N)c(Cl)cc2C(=O)CCC2CCN(CCNS(C)(=O)=O)CC2)cc(OC)c1` showed a pKb in series [1] of 9.1. For the same compound, the half-life in series [3] worked out at 5.25 h. The values for the ED50 in series [5] and in series [6] were 245 µg/kg and 4.68 µg/kg, respectively.

Source of the values: ChEMBL document CHEMBL1153669, “Rs-100235: A high affinity 5-HT4 receptor antagonist” (Bioorg Med Chem Lett, 1995).
